Key:
Cholinesterase [1] = molecular target: Cholinesterase (Equus caballus, UniProt P81908); test: Inhibition of equine serum BuChE using butyrylthiocholine iodide as substrate incubated for 10 mins followed by substrate addition by DTNB-reagent based Ellman's colorimetric assay
Cholinesterase [2] = molecular target: Cholinesterase (Homo sapiens, UniProt P06276); test: Inhibition of human BuChE using butyrylthiocholine iodide as substrate incubated for 10 mins followed by substrate addition by DTNB-reagent based Ellman's colorimetric assay
PC-12 [3] = test: Cytotoxicity against rat PC12 cells assessed as inhibition of cell growth measured after 24 hrs by MTT assay; format: functional, cell-based; settings: PC-12, 24 h
SH-SY5Y [4] = test: Cytotoxicity against human SH-SY5Y cells assessed as inhibition of cell growth measured after 24 hrs by MTT assay; format: functional, cell-based
[5] = Cytotoxicity against mouse BV-2 cells assessed as survival rate at 100 uM measured after 24 hrs by MTT assay relative to control; format: toxicity, cell-based; settings: read-out: Survival
L02 = test: Cytotoxicity against human L02 cells assessed as survival rate at 100 uM measured after 24 hrs by MTT assay relative to control; format: functional; settings: read-out: Survival
PC-12 [6] = test: Cytotoxicity against rat PC12 cells assessed as survival rate at 100 uM measured after 24 hrs by MTT assay relative to control; settings: PC-12, 24 h, read-out: Survival
SH-SY5Y [7] = test: Cytotoxicity against human SH-SY5Y cells assessed as survival rate at 2.5 uM measured after 24 hrs by MTT assay relative to control; format: functional; settings: read-out: Survival
[8] = Cytotoxicity against mouse BV-2 cells assessed as inhibition of cell growth measured after 24 hrs by MTT assay; format: toxicity, cell-based

Cholinesterase (Equus caballus, UniProt P81908), sequence (P81908 whole entry): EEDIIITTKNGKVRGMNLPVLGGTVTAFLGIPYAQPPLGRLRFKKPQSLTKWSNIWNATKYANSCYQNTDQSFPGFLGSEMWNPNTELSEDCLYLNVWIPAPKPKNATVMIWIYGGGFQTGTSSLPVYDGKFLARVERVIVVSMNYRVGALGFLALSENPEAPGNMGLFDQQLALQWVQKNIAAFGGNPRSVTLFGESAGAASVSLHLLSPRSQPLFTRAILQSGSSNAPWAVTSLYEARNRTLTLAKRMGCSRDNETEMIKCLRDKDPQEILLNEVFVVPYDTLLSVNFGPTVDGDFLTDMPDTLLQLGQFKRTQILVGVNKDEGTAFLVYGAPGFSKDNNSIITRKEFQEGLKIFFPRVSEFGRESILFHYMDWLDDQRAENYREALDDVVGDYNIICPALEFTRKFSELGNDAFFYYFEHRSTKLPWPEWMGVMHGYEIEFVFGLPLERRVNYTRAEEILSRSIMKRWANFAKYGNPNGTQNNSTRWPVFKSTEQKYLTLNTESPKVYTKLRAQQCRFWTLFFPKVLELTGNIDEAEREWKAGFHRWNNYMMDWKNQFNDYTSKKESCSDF
Cholinesterase (Homo sapiens, UniProt P06276), sequence (P06276 whole entry): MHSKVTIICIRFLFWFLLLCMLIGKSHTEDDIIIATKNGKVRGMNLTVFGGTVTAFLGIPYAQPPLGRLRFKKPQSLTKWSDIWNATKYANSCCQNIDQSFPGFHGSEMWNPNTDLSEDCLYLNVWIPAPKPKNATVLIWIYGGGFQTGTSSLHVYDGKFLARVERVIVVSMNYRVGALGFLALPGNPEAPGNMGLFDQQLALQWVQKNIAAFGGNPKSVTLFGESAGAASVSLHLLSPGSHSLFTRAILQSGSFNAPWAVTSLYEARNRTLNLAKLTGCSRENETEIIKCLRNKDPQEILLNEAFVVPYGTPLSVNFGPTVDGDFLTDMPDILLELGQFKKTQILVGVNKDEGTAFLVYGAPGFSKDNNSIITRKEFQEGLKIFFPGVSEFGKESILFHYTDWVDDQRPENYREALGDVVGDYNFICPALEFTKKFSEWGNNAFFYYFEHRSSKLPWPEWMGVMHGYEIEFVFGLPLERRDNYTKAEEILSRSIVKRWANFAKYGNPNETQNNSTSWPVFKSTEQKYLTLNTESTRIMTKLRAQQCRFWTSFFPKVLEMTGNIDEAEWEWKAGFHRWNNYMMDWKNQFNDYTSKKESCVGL

Cc1cc(NC(=O)Cn2c(-c3nonc3N)nc3ccccc32)cc([N+](=O)[O-])c1
IC50 (Cholinesterase [1]): 0.0476 µM | IC50 (Cholinesterase [2]): 0.278 µM | IC50 (PC-12 [3]): 28.8 µM | IC50 (SH-SY5Y [4]): 58.9 µM | viability at 24 h, 100 µM [5]: 79.8% | viability at 100 µM (L02): 79.1%

Cc1cc(F)cc(NC(=O)Cn2c(-c3nonc3N)nc3ccccc32)c1
IC50 (Cholinesterase [1]): 0.0578 µM | IC50 (Cholinesterase [2]): 0.453 µM | viability at 100 µM (PC-12 [6]): 75.8% | viability at 2.5 µM (SH-SY5Y [7]): 26.3% | viability at 24 h, 100 µM [5]: 97.5% | viability at 100 µM (L02): 80%

Nc1nonc1-c1nc2ccccc2n1CC(=O)Nc1ccc(F)cc1Br
IC50 (Cholinesterase [1]): 0.119 µM | IC50 (Cholinesterase [2]): 0.0357 µM | viability at 100 µM (PC-12 [6]): 86.6% | viability at 2.5 µM (SH-SY5Y [7]): 22.4% | IC50 at 24 h [8]: 0.73 µM | viability at 100 µM (L02): 89%

Nc1nonc1-c1nc2ccccc2n1CC(=O)Nc1ccc([N+](=O)[O-])c(Cl)c1
IC50 (Cholinesterase [1]): 0.011 µM | IC50 (Cholinesterase [2]): 0.749 µM | IC50 (PC-12 [3]): 27.8 µM | IC50 (SH-SY5Y [4]): 24.9 µM | viability at 24 h, 100 µM [5]: 52.6% | viability at 100 µM (L02): 52.6%

Cc1ccc2cc(NC(=O)Cn3c(-c4nonc4N)nc4ccccc43)ccc2n1
viability at 100 µM (L02): 61.5%

Nc1nonc1-c1nc2ccccc2n1CC(=O)Nc1cc(Cl)cc(Br)c1
IC50 (Cholinesterase [1]): 0.00161 µM | IC50 (Cholinesterase [2]): 0.0757 µM | IC50 (PC-12 [3]): 37.8 µM | viability at 2.5 µM (SH-SY5Y [7]): 43.6% | viability at 24 h, 100 µM [5]: 59.9% | viability at 100 µM (L02): 80.3%

Nc1nonc1-c1nc2ccccc2n1CC(=O)Nc1cc(Br)cc(C(F)(F)F)c1
IC50 (Cholinesterase [1]): 0.00421 µM | IC50 (Cholinesterase [2]): 0.0124 µM | IC50 (PC-12 [3]): 11.4 µM | viability at 2.5 µM (SH-SY5Y [7]): 44.7% | viability at 24 h, 100 µM [5]: 56.3% | viability at 100 µM (L02): 75.8%

Nc1nonc1-c1nc2ccccc2n1CC(=O)Nc1cc(Cl)cc(Cl)c1
IC50 (Cholinesterase [1]): 0.00427 µM | IC50 (Cholinesterase [2]): 0.0304 µM | IC50 (PC-12 [3]): 13.6 µM | viability at 2.5 µM (SH-SY5Y [7]): 45.8% | viability at 24 h, 100 µM [5]: 52.1% | viability at 100 µM (L02): 94.2%

Cc1cc(Br)cc(NC(=O)Cn2c(-c3nonc3N)nc3ccccc32)c1
IC50 (Cholinesterase [1]): 0.00638 µM | IC50 (Cholinesterase [2]): 0.218 µM | viability at 100 µM (PC-12 [6]): 58.9% | viability at 2.5 µM (SH-SY5Y [7]): 31% | viability at 24 h, 100 µM [5]: 92.6% | viability at 100 µM (L02): 71.4%

Cc1cc(Cl)cc(NC(=O)Cn2c(-c3nonc3N)nc3ccccc32)c1
IC50 (Cholinesterase [1]): 0.00916 µM | IC50 (Cholinesterase [2]): 0.101 µM | viability at 100 µM (PC-12 [6]): 54.3% | viability at 2.5 µM (SH-SY5Y [7]): 32.1% | viability at 24 h, 100 µM [5]: 56.3% | viability at 100 µM (L02): 65.9%

Nc1nonc1-c1nc2ccccc2n1CC(=O)Nc1cc(F)cc(Br)c1
IC50 (Cholinesterase [1]): 0.0143 µM | IC50 (Cholinesterase [2]): 0.0622 µM | viability at 100 µM (PC-12 [6]): 88.3% | viability at 2.5 µM (SH-SY5Y [7]): 44.2% | viability at 24 h, 100 µM [5]: 88.4% | viability at 100 µM (L02): 88.4%

Nc1nonc1-c1nc2ccccc2n1CC(=O)Nc1cc(Br)cc(Br)c1
IC50 (Cholinesterase [1]): 0.00384 µM | IC50 (Cholinesterase [2]): 0.0279 µM | IC50 (PC-12 [3]): 6.56 µM | viability at 2.5 µM (SH-SY5Y [7]): 27.3% | viability at 24 h, 100 µM [5]: 52% | viability at 100 µM (L02): 85.3%

COc1cc(NC(=O)Cn2c(-c3nonc3N)nc3ccccc32)cc(OC)c1
IC50 (Cholinesterase [1]): 0.107 µM | IC50 (Cholinesterase [2]): 0.309 µM | viability at 100 µM (PC-12 [6]): 88.8% | viability at 2.5 µM (SH-SY5Y [7]): 24.6% | IC50 at 24 h [8]: 6.3 µM | viability at 100 µM (L02): 72.8%

Nc1nonc1-c1nc2ccccc2n1CC(=O)Nc1cc(C(F)(F)F)cc(C(F)(F)F)c1
IC50 (Cholinesterase [1]): 0.00772 µM | IC50 (Cholinesterase [2]): 0.935 µM | viability at 100 µM (PC-12 [6]): 50.2% | viability at 2.5 µM (SH-SY5Y [7]): 46.1% | viability at 24 h, 100 µM [5]: 100% | viability at 100 µM (L02): 74.2%

Cc1cc(C)cc(NC(=O)Cn2c(-c3nonc3N)nc3ccccc32)c1
IC50 (Cholinesterase [1]): 0.013 µM | IC50 (Cholinesterase [2]): 0.885 µM | viability at 100 µM (PC-12 [6]): 69.7% | IC50 (SH-SY5Y [4]): 7.5 µM | viability at 24 h, 100 µM [5]: 85.9% | viability at 100 µM (L02): 85.9%

Nc1nonc1-c1nc2ccccc2n1CC(=O)Nc1cc([N+](=O)[O-])cc(C(F)(F)F)c1
IC50 (Cholinesterase [1]): 0.00035 µM | IC50 (Cholinesterase [2]): 0.0716 µM | IC50 (PC-12 [3]): 18.1 µM | IC50 (SH-SY5Y [4]): 15.4 µM | viability at 24 h, 100 µM [5]: 57.5% | viability at 100 µM (L02): 57.5%

Nc1nonc1-c1nc2ccccc2n1CC(=O)Nc1cc(F)cc(Cl)c1
IC50 (Cholinesterase [1]): 0.00532 µM | IC50 (Cholinesterase [2]): 0.155 µM | viability at 100 µM (PC-12 [6]): 58% | viability at 2.5 µM (SH-SY5Y [7]): 28.1% | viability at 24 h, 100 µM [5]: 111% | viability at 100 µM (L02): 91.7%

— ChEMBL document CHEMBL5352386 (Eur J Med Chem, 2022)
